Values of other authors, collected in patent US12116550B2, “Process of making a liquid conditioning composition” (The Procter & Gamble Company, priority 2020, dated 2024).

Settings: nonionic surfactants of Table A, value reported for the trade product
For Sorbitan isostearate [Span 120], the “Reported HLB” value is given as 4.7.
For Sorbitan monooleate [Span 80], the “Reported HLB” value is listed as 4.3.
In the case of Sorbitan monopalmitate [Span 40], the “Reported HLB” value is listed as 6.7.
For Sorbitan monostearate [Span 60], the “Reported HLB” value is listed as 4.7.
